Test results taken from patent publication US10519140B2, “Indolin-2-one derivatives” (Hoffmann-La Roche Inc., priority 2015, dated 2019).

Experiments:
[1] = test system: L-687,414-induced hyperlocomotion; experiment: L-687,414-induced hyperlocomotion; format: in vivo; settings: Mus musculus; mice; dose 30 mg/kg ip, 15 min before 50 mg/kg s.c. L-687,414
Excerpt: The authors described that hyperlocomotion induced by L-687,414 was inhibited by a series of known antipsychotic drugs. […] These findings predict antipsychotic activity for the present compounds, making them useful for the treatment of positive (psychosis) and negative symptoms of schizophrenia, substance abuse, alcohol and drug addiction, obsessive-compulsive disorders, cognitive impairment, bipolar disorders, mood disorders, major depression, resistant depression, anxiety disorders, Alzheimer's disease, autism, Parkinson's disease, chronic pain, borderline personality disorder, sleep disturbances, chronic fatigue syndrome, stiffness, antiinflammatory effects in arthritis and balance problems, and treatment of epilepsy and neurodevelopmental disorders with co-morbid epilepsy.
The described compounds of formula I reduce L-687,414-induced hyperlocomotion. This was assessed by using a computerized Digiscan 16 Animal Activity Monitoring System (Omnitech Electronics, Columbus, Ohio) to quantify locomotor activity. Animals were kept under a 12 h light/dark cycle and experiments were performed during the light period. Each activity monitoring chamber consisted of a Plexiglas box (41×41×28 cm; W×L×H) with sawdust bedding on the floor surrounded by invisible horizontal and vertical infrared sensor beams. The test boxes were divided by a Plexiglas cross providing each mouse with 20×20 cm of moving space. Cages were connected to a Digiscan Analyzer linked to a computer that constantly collected the beam status information. Records of photocell beam interruptions for individual animals were taken every 5 min over the duration of the experimental session and the sum of the first 6 periods was used as the final parameter. At least 8 mice were used in each treatment group. Compounds were administered i.p. 15 min before a s.c. injection of 50 mg/kg of L-687,414. Mice were then transferred from their home cage to the recording chambers for a 15-min habituation phase allowing free exploration of the new environment. Horizontal activity was then recorded for a 30-min time period. The % inhibition of L-687,414-induced hyperlocomotion was calculated according to the equation: ((Veh+L-687,414 horizontal activity−drug+L-687,414 horizontal activity)/Veh+L−687,414 horizontal activity)×100
ID50 values, defined as doses of each compound producing 50% inhibition of L-687,414-induced hyperlocomotion, were calculated by linear regression analysis of a dose-response data using an Excel-based computer-fitting program.
As data was not presupposed to be normally distributed, groups treated with test compounds were statistically compared with the control (vehicle-treated) group using one-tailed Mann Whitney U tests. In statistics, the Mann-Whitney Utest (also called the Mann-Whitney-Wilcoxon (MWW) or Wilcoxon rank-sum test) is a non-parametric statistical hypothesis test for assessing whether one of two samples of independent observations tends to have larger values than the other. It is one of the most well-known non-parametric significance tests. […] P values given in table 1 are one-tailed since only decreases in locomotion were expected and tested for (Mann, H. B., Whitney, D. R. (1947), “On a Test of Whether one of Two Random Variables is Stochastically Larger than the Other”, Annals of Mathematical Statistics, 18 (1), 50-60).

[2] = target: T1, mouse ENT-1 transporter (Mus musculus, UniProt Q9JIM1); experiment: Adenosine transport activity (ENT1, [3H]-adenosine uptake inhibition); format: cell-based; settings: stable cells expressing mouse ENT-1; [2,8-3H]-adenosine 6 nM, 20 min
T1 construct: expressed in transfected cells
T1 sequence (Q9JIM1 1-460): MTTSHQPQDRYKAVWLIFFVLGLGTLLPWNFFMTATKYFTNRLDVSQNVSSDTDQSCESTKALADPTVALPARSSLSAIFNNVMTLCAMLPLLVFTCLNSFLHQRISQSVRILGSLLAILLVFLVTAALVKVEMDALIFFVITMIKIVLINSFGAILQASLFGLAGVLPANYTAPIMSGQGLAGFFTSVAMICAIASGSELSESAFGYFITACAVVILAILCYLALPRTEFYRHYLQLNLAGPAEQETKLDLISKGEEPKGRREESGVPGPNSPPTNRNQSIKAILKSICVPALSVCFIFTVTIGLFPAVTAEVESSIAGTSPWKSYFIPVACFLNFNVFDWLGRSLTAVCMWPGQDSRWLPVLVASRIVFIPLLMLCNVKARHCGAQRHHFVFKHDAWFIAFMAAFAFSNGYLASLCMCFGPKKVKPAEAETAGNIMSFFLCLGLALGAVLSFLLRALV
Summary of the method: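 Stable mammalian cells expressing mouse ENT1 are seeded at 60,000 cells/well and washed into HEPES-Tris pH 7.4 uptake buffer. Compounds (1% DMSO) are added at RT, immediately followed by 6 nM [3H]-adenosine for 20 min. Cell-associated radioactivity is counted by scintillation after ice-cold washes, with nonspecific uptake defined by 10 μM NBTI.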

| Compound | IC50 [2] [µM] | inhibition in vivo at 30 mg/kg [1] [%] |
| --- | --- | --- |
| Cc1ncc(-c2ccc3c(c2)N(c2cncc(N4CCOCC4)n2)C(=O)C3(C)C)cn1 [Example 1, 3,3-Dimethyl-6-(2-methylpyrimidin-5-yl)-1-(6-morpholinopyrazin-2-yl)indolin-2-one] | 0.039 | 90 |
| Cc1ncc(-c2ccc3c(c2)N(c2cncc(N4CCCC4=O)n2)C(=O)C3(C)C)cn1 [Example 3, 3,3-Dimethyl-6-(2-methylpyrimidin-5-yl)-1-(6-(2-oxopyrrolidin-1-yl)pyrazin-2-yl)indolin-2-one] | 0.057 | 87.8 |
| Cc1ncc(-c2ccc3c(c2)N(c2cnc(C)c(N4CCOCC4)n2)C(=O)C3(C)C)cn1 [Example 18, 3,3-Dimethyl-1-(5-methyl-6-morpholinopyrazin-2-yl)-6-(2-methylpyrimidin-5-yl)indolin-2-one] | 0.097 | 88.8 |
| Cc1ncc(-c2ccc3c(c2)N(c2ccc4c(n2)N(C)C(=O)C4(C)C)C(=O)C3(C)C)cn1 [Example 39, 6-(3,3-Dimethyl-6-(2-methylpyrimidin-5-yl)-2-oxoindolin-1-yl)-1,3,3-trimethyl-1H-pyrrolo[2,3-b]pyridin-2(3H)-one] | 0.0269 | 99.5 |
| Cc1ncc(-c2ccc3c(c2)N(c2cnc(-n4ccnc4C)cn2)C(=O)C3(C)C)cn1 [Example 50, 3,3-Dimethyl-1-(5-(2-methyl-1H-imidazol-1-yl)pyrazin-2-yl)-6-(2-methylpyrimidin-5-yl)indolin-2-one] | 0.0311 | 96.3 |

Molecules with a lower IC50 [2], results first:

| IC50 [2] [µM] | Compound | inhibition in vivo at 30 mg/kg [1] [%] |
| --- | --- | --- |
| 0.026 | Cc1ncc(-c2ccc3c(c2)N(c2cncc(N4CCOC4=O)n2)C(=O)C3(C)C)cn1 [Example 15, 3-(6-(3,3-Dimethyl-6-(2-methylpyrimidin-5-yl)-2-oxoindolin-1-yl)pyrazin-2-yl)oxazolidin-2-one] | 87.1 |
| 0.0165 | Cc1ncc(-c2ccc3c(c2)N(c2cnc(C)c(N4CCOC4=O)n2)C(=O)C3(C)C)cn1 [Example 20, 3-(6-(3,3-Dimethyl-6-(2-methylpyrimidin-5-yl)-2-oxoindolin-1-yl)-3-methylpyrazin-2-yl)oxazolidin-2-one] | 89.7 |
| 0.0239 | Cc1ncc(-c2ccc3c(c2)N(c2cnc4c(c2)C(C)(C)C(=O)N4C)C(=O)C3(C)C)cn1 [Example 54, 5-(3,3-Dimethyl-6-(2-methylpyrimidin-5-yl)-2-oxoindolin-1-yl)-1,3,3-trimethyl-1H-pyrrolo[2,3-b]pyridin-2(3H)-one] | 93.5 |
